According to article PMC5771863 (Anesthesiology, 2018):
Like-named read-outs stand apart in the source and are kept apart here.

Key:
Assay type in all cases: cell-based
[1] = target: T1, α1β3M286Cγ2L GABAA receptors (Homo sapiens, UniProt P14867+P28472, M311C); conditions: β3M286C; pCMBS + maximal GABA; 10 μM ETO, 20 μM PRO, 10 μM ALX
[2] = target: T2, α1β3F289Cγ2L GABAA receptors (Homo sapiens, UniProt P14867+P28472, F314C); conditions: pCMBS + maximal GABA
[3] = target: T2, α1β3F289Cγ2L GABAA receptors; conditions: β3F289C; […] ETO, 5 μM PRO, […] ALX
[4] = target: α1β3V290Cγ2L GABAA receptors (Homo sapiens, UniProt P14867+P28472, V315C); conditions: α1β3V290Cγ2L; pCMBS + maximal GABA; 10 μM ETO, 20 μM PRO, 10 μM ALX
[5] = target: T1, α1β3M286Cγ2L GABAA receptors; test: GABA EC5 enhancement by anesthetics, voltage clamp in Xenopus oocytes; conditions: β3M286C; […] ETO, 5 μM PRO, […] ALX
[6] = target: α1β3F293Cγ2L GABAA receptors (Homo sapiens, UniProt P14867+P28472, F318C); conditions: β3F293C; […] ETO, 5 μM PRO, […] ALX
[7] = target: α1β3T262Cγ2L GABAA receptors (Homo sapiens, UniProt P14867+P28472, T287C); test: Substituted cysteine modification-protection; conditions: pCMBS + maximal GABA, 10 μM ETO, 20 μM PRO
[8] = target: α1β3E298Cγ2L GABAA receptors (Homo sapiens, UniProt P14867+P28472, E323C); test: GABA EC5 enhancement by anesthetics, voltage clamp in Xenopus oocytes; conditions: β3E298C; […] ETO, 5 μM PRO, […] ALX
[9] = target: α1β3L297Cγ2L GABAA receptors (Homo sapiens, UniProt P14867+P28472, L322C); test: as above; conditions: β3L297C; […] ETO, 5 μM PRO, […] ALX
[10] = 10 μM ETO, 20 μM PRO, 10 μM ALX

T2 sequence (P14867 28-456): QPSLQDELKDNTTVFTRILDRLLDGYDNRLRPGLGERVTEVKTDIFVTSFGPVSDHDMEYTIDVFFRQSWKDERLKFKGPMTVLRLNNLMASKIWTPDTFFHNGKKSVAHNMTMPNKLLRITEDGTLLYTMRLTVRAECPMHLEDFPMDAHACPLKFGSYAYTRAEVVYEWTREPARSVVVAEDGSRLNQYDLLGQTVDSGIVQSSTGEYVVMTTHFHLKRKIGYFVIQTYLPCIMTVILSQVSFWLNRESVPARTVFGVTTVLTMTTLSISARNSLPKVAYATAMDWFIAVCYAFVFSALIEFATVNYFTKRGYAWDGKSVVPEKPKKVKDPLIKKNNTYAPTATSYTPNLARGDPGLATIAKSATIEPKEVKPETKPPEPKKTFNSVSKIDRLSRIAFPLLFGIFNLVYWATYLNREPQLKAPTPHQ
T2 sequence (P28472 26-473 F314C): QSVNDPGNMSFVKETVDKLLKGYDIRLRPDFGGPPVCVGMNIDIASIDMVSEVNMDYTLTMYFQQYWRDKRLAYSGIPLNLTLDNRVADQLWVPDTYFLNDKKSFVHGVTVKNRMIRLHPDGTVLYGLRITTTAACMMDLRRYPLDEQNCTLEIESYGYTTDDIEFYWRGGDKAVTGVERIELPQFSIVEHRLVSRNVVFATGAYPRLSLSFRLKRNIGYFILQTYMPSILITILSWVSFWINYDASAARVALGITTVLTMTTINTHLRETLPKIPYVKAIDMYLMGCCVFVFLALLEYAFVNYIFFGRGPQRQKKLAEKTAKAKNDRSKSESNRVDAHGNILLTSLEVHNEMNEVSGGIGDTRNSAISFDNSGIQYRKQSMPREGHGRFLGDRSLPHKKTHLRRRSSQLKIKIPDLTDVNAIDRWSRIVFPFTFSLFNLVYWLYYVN
T2 sequence (P18507 40-475 partner): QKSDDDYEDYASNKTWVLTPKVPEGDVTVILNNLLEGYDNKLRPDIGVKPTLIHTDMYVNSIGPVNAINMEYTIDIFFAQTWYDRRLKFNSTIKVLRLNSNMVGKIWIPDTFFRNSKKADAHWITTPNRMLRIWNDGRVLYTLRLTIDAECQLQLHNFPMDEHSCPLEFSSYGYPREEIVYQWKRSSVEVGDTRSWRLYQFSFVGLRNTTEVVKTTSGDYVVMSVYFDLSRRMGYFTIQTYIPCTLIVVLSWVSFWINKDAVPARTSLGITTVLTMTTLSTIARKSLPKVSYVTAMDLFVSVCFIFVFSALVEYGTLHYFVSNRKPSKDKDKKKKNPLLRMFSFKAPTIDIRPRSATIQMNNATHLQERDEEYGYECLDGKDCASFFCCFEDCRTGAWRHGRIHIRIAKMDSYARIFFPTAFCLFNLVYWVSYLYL
T1 sequence (P14867 28-456): as the sequence (P14867 28-456) above
T1 sequence (P28472 26-473 M311C): as the sequence (P28472 26-473 F314C) above, with M286C, C289F counted along it
T1 sequence (P18507 40-475 partner): as the sequence (P18507 40-475 partner) above
Sequence of α1β3T262Cγ2L GABAA receptors (P14867 28-456): as the sequence (P14867 28-456) above
Sequence of α1β3T262Cγ2L GABAA receptors (P28472 26-473 T287C): as the sequence (P28472 26-473 F314C) above, with T262C, C289F counted along it
Sequence of α1β3T262Cγ2L GABAA receptors (P18507 40-475 partner): as the sequence (P18507 40-475 partner) above
Sequence of α1β3V290Cγ2L GABAA receptors (P14867 28-456, stated change not applied): as the sequence (P14867 28-456) above
Sequence of α1β3V290Cγ2L GABAA receptors (P28472 26-473 V315C): as the sequence (P28472 26-473 F314C) above, with C289F, V290C counted along it
Sequence of α1β3V290Cγ2L GABAA receptors (P18507 40-475 partner): as the sequence (P18507 40-475 partner) above
Sequence of α1β3F293Cγ2L GABAA receptors (P14867 28-456): as the sequence (P14867 28-456) above
Sequence of α1β3F293Cγ2L GABAA receptors (P28472 26-473 F318C): as the sequence (P28472 26-473 F314C) above, with C289F, F293C counted along it
Sequence of α1β3F293Cγ2L GABAA receptors (P18507 40-475 partner): as the sequence (P18507 40-475 partner) above
Sequence of α1β3L297Cγ2L GABAA receptors (P14867 28-456): as the sequence (P14867 28-456) above
Sequence of α1β3L297Cγ2L GABAA receptors (P28472 26-473 L322C): as the sequence (P28472 26-473 F314C) above, with C289F, L297C counted along it
Sequence of α1β3L297Cγ2L GABAA receptors (P18507 40-475 partner): as the sequence (P18507 40-475 partner) above
Sequence of α1β3E298Cγ2L GABAA receptors (P14867 28-456): as the sequence (P14867 28-456) above
Sequence of α1β3E298Cγ2L GABAA receptors (P28472 26-473 E323C): as the sequence (P28472 26-473 F314C) above, with C289F, E298C counted along it
Sequence of α1β3E298Cγ2L GABAA receptors (P18507 40-475 partner): as the sequence (P18507 40-475 partner) above

| Compound | effect on apparent rate of pCMBS modification [1] | effect on apparent rate of pCMBS modification [2, 10] | effect on apparent rate of pCMBS modification ([2]; 50 μM ETO, 100 μM PRO, 50 μM ALX) | EC5 enhancement compared to wild-type [3] | effect on apparent rate of pCMBS modification [4] | EC5 enhancement compared to wild-type [5] | EC5 enhancement compared to wild-type [6] | effect on apparent rate of pCMBS modification [7] | EC5 enhancement compared to wild-type [8] | EC5 enhancement compared to wild-type [9] |
| --- | --- | --- | --- | --- | --- | --- | --- | --- | --- | --- |
| CC(C)c1cccc(C(C)C)c1O [PRO, 2,6-diisopropylphenol] | block modification | unaffected | neither 100 μM PRO nor 50 μM ALX inhibited modification | reduced | strongly blocked | reduced | reduced | accelerated |  |  |
| CCOC(=O)c1cncn1[C@H](C)c1ccccc1 [ETO, R-Etomidate] | block modification | weakly blocked |  | reduced | strongly blocked | reduced | increased | unaffected | increased | increased |
